Where a name gives a salt, the structure may show the parent alone.

Common to all, as to format: in vivo
The subject of assay [1] is male ICR mouse. In words: Acetic acid-induced writhing test in mouse. The note with it: po, p.o, acetic acid i.p. 1 hour after dosing, writhing counted for 10 minutes, read-out: Writhing Test Suppression of pain response. The method, then:
An acetic acid-induced writhing test is one of models for measuring an analgesic effect of drugs. A test material dissolved in a suitable vehicle was orally administered to a male ICR mouse weighing 30 to 35 g at an amount of 10 mg/kg. After 1 hour of the oral administration, […] of an aqueous 0.8% acetic acid solution was intraperitoneally injected into the male ICR mouse to induce the abdominal pain of the male ICR mouse. Right after the administration of acetic acid, the male ICR mouse was put into an empty cage, and the number of writhing behaviors of the mice was counted for 10 minutes. The term “writhing” represents a reflex action in which the mouse overtly extends its abdomen by stretching its hind legs due to the abdominal pain. The analgesic effect of the test material is represented by the ‘suppression of pain response’ {[(Writhing number of vehicle-administered group−Writhing number of Test material—administered group)/(Writhing number of Solvent-administered group)]×100%}.

The test system of assay [2] is male ICR mouse. In words: Hot plate test in mouse. The note with it: po, p.o, 1 hour after dosing, hot plate 55° C., read-out: Hot Plate Test Increase in latency of avoidance response. How it is done: A hot plate test is one of representative models for measuring an analgesic effect of drugs. A test material dissolved in a suitable vehicle was orally administered to a male ICR mouse weighing 25 to 30 g at an amount of 30 mg/kg. After 1 hour of the oral administration, the mouse was put on a hot plate (55° C.). A latency was recorded from the time right after a mouse is put on a hot plate to the time when avoidance responses (flinching, licking, jumping, etc.) to pain are observed from forefeet or rear legs of the mouse. The analgesic effect of the test material is represented by the ‘Increase in latency of avoidance response’ {[(Latency of avoidance response to pain of Test material-administered group−Latency of avoidance response to pain of vehicle-administered group)/(Latency of avoidance response to pain of Solvent-administered group)]×100%}.
For orientation: Thermal pain tests record how soon the animal reacts.

Assay [3] concerns male ICR mouse. In words: Elevated plus maze (EPM) test in mouse. The note with it: po, p.o, 1 hour after dosing, 5 minutes observation, read-out: Elevated Plus Maze Change index in Open-Arm Time. The source says: Elevated plus maze (EPM) is one of representative models that examine an anti-anxiety activity of a test material. Equipment used for an EPM test has a crossroad shape raised in a high position off the ground, and is configured in such a cliff shape that both sides of one road are protected with high walls and the other road is free from the wall. Among them, the road in the cliff shape is referred to as an ‘open arm,’ and the road protected by the walls is referred to as a ‘close arm.’ In this case, a level of the anxiety of a mouse may be measured by determining in which arm the mouse stays longer. In general, the mouse stays longer in the close arm than the open arm, but a mouse treated with a medicine showing an anti-anxiety effect stays relatively longer in the open arm. A test material dissolved in a suitable vehicle was orally administered to a male ICR mouse weighing 20 to 25 g at an amount of 10 mg/kg. After 1 hour of the oral administration, the mouse was put on the center of an EPM equipment to measure how long the mouse stays in the open arm within a time range of 5 minutes. The anti-anxiety effect of the test material is represented by the ‘Change index in Open-Arm Time’ {[(open arm duration in test material-administered group−open arm duration in vehicle-administered group)/(open arm duration in vehicle administered group)]×100%}.

In assay [4] the test system is male ICR mouse. Kind of assay: Head twitch potentiation induced by 5-HTP (5-HTP potentiation test) in mouse. To be noted: po, 0.5 h, p.o, 5-HTP 80 mg/kg + Carbidopa 25 mg/kg i.p. 30 minutes after dosing, head twitches counted for 2 minutes, negative = 5-HT2A antagonist, read-out: 5-HTP Potentiation Increase rate in Head Twitch No. How it is done: When 5-hydroxy-L-tryptophan (5-HTP) is administered into a mouse, a head twitch phenomenon is observed since serotonin is increasingly secreted in the mouse. […] By using this principle, it is possible to search an effect of the representative antidepressant agent. A test material dissolved in a suitable vehicle was orally administered to a male ICR mouse weighing 20 to 25 g at an amount of 30 mg/kg. After 30 minutes of the oral administration, 5-HTP (80 mg/kg) and 5-HTP peripheral decarbozylase inhibitor ‘Carbidopa’ (25 mg/kg) were intraperitoneally administered to the mouse. After 30 minutes of the intraperitoneal administration, the mouse was put into an observation cage, and head twitches of the mouse were counted for 2 minutes. The anti-depression effect of the test material is represented by the ‘Increase rate in Head Twitch No.’ {[(Head Twitch No. of Test material-administered group−Head Twitch No. of vehicle-administered group)/(Head Twitch No. of vehicle-administered group)]×100%}. […] In addition to the selective serotonin reuptake inhibitor (SSRI) that has been widely used as an antidepressant agent in the clinical fields, it was tested that 5-HT2A antagonists such as nefazodone and trazodone also have an antidepressant effect.

Regarding `NC(=O)OC(CC(=O)N1CCN(c2cnc3ccccc3n2)CC1)c1ccccc1` (stereo not shown) [Example 22, carbamic acid 3-oxo-1-phenyl-3-(4-quinoxalin-2-yl-piperazin-1-yl)-propyl ester], the inhibition in vivo at 10 mg/kg with male ICR mouse [1] came out at 29.4%. The change in vivo at 30 mg/kg is 38% in the assay with male ICR mouse [2] and 3.9% in the assay on male ICR mouse [4]. Besides, the change in vivo at 10 mg/kg in the assay with male ICR mouse [3] is -21.2%.

Consider `CC(=O)Oc1ccc(N2CCN(C(=O)CC(OC(N)=O)c3ccccc3)CC2)cc1` (stereo not shown) [Example 23, acetic acid 4-[4-(3-carbamoyloxy-3-phenyl-propionyl)-piperazin-1-yl]-phenyl ester], for which the inhibition in vivo at 10 mg/kg in the assay with male ICR mouse [1] is 21.1%. The change in vivo at 30 mg/kg in the assay with male ICR mouse [2] turned out to be 29.4%; with male ICR mouse [4] it was 100%. Further, in the assay on male ICR mouse [3], the change in vivo at 10 mg/kg is -25.1%.

Consider `NC(=O)OC(CC(=O)N1CCN(c2ccc(Cl)c(C(F)(F)F)c2)CC1)c1ccccc1` (stereo not shown) [Example 27, carbamic acid 3-[4-(4-chloro-3-trifluoromethyl-phenyl)-piperazin-1-yl]-3-oxo-1-phenyl-propyl ester], for which the inhibition in vivo at 10 mg/kg with male ICR mouse [1] turned out to be 29.1%. The change in vivo at 30 mg/kg in the assay with male ICR mouse [2] was 41.2%; in the assay on male ICR mouse [4] it was -78.1%. For the same molecule, the change in vivo at 10 mg/kg in the assay on male ICR mouse [3] came to 66.7%.

On to `NC(=O)OC(CC(=O)N1CCN(c2ccc(C(F)(F)F)cc2)CC1)c1ccccc1` (stereo not shown) [Example 28, carbamic acid 3-oxo-1-phenyl-3-[4-(4-trifluoromethyl-phenyl)-piperazin-1-yl]-propyl ester], for which the inhibition in vivo at 10 mg/kg with male ICR mouse [1] came out at 55.6%. In addition, the change in vivo at 30 mg/kg was 3.1% with male ICR mouse [2] and -12.5% in the assay on male ICR mouse [4]. Moreover, in the assay with male ICR mouse [3], the change in vivo at 10 mg/kg is -1.4%.

Regarding `NC(=O)OC(CC(=O)N1CCN(c2ccccc2F)CC1)c1ccccc1` (stereo not shown) [Example 29, carbamic acid 3-[4-(2-fluoro-phenyl)-piperazin-1-yl]-3-oxo-1-phenyl-propyl ester], in the assay on male ICR mouse [1], the inhibition in vivo at 10 mg/kg is 34.5%. In addition, the change in vivo at 30 mg/kg was 0% in the assay on male ICR mouse [2] and 14.3% in the assay with male ICR mouse [4]. Also, the change in vivo at 10 mg/kg in the assay on male ICR mouse [3] is 92.3%.

On to `NC(=O)OC(CC(=O)N1CCN(c2cccc(F)c2)CC1)c1ccccc1` (stereo not shown) [Example 30, carbamic acid 3-[4-(3-fluoro-phenyl)-piperazin-1-yl]-3-oxo-1-phenyl-propyl ester], for which, in the assay on male ICR mouse [1], the inhibition in vivo at 10 mg/kg worked out at 9.2%. Moreover, the change in vivo at 30 mg/kg was 27.1% with male ICR mouse [2] and 40% in the assay with male ICR mouse [4]. Moreover, the change in vivo at 10 mg/kg in the assay with male ICR mouse [3] stood at 102%.

As to `NC(=O)OC(CC(=O)N1CCN(c2ccccc2)CC1)c1ccc(C(F)(F)F)cc1` (stereo not shown) [Example 31, carbamic acid 3-oxo-3-(4-phenyl-piperazin-1-yl)-1-(4-trifluoromethyl-phenyl)-propyl ester], in the assay on male ICR mouse [1], the inhibition in vivo at 10 mg/kg was 21.6%. Moreover, the change in vivo at 30 mg/kg in the assay on male ICR mouse [2] amounted to 20.1%; with male ICR mouse [4], 10%. Moreover, the change in vivo at 10 mg/kg in the assay with male ICR mouse [3] came to 35.6%.

Take `Cc1ccc(C(CC(=O)N2CCN(c3ccccc3)CC2)OC(N)=O)cc1` (stereo not shown) [Example 32, carbamic acid 3-oxo-3-(4-phenyl-piperazin-1-yl)-1-p-tolyl-propyl ester]: the inhibition in vivo at 10 mg/kg in the assay with male ICR mouse [1] turned out to be 6%. Further, the values for the change in vivo at 30 mg/kg in the assay on male ICR mouse [2] and in the assay with male ICR mouse [4] were 28.2% and -40%, respectively. Also, the change in vivo at 10 mg/kg in the assay with male ICR mouse [3] turned out to be 9.5%.

Regarding `NC(=O)OC(CC(=O)N1CCN(c2ccccc2)CC1)c1ccc([N+](=O)[O-])cc1` (stereo not shown) [Example 34, carbamic acid 1-(4-nitro-phenyl)-3-oxo-3-(4-phenyl-piperazin-1-yl)-propyl ester], the inhibition in vivo at 10 mg/kg with male ICR mouse [1] amounted to 38.4%. Besides, the change in vivo at 30 mg/kg with male ICR mouse [2] amounted to 0.6%; in the assay on male ICR mouse [4] it was 2.9%. For the same molecule, the change in vivo at 10 mg/kg in the assay with male ICR mouse [3] is 6.5%.

For the molecule `COc1ccc(N2CCN(C(=O)CC(OC(N)=O)c3ccc(C(F)(F)F)cc3)CC2)cc1OC` (stereo not shown) [Example 35, carbamic acid 3-[4-(3,4-dimethoxy-phenyl)-piperazin-1-yl]-3-oxo-1-(4-trifluoromethyl-phenyl)-propyl ester; hydrochloride], the inhibition in vivo at 10 mg/kg in the assay with male ICR mouse [1] came out at 33.8%. The change in vivo at 30 mg/kg came out at 32.8% in the assay on male ICR mouse [2] and 64.3% in the assay with male ICR mouse [4]. Moreover, the change in vivo at 10 mg/kg in the assay with male ICR mouse [3] is 44%.

Regarding `COc1ccc(N2CCN(C(=O)CC(OC(N)=O)c3ccc([N+](=O)[O-])cc3)CC2)cc1OC` (stereo not shown) [Example 36, carbamic acid 3-[4-(3,4-dimethoxy-phenyl)-piperazin-1-yl]-1-(4-nitro-phenyl)-3-oxo-propyl ester; hydrochloride], in the assay with male ICR mouse [1], the inhibition in vivo at 10 mg/kg worked out at 42%. The change in vivo at 30 mg/kg with male ICR mouse [2] was 20.5%; in the assay with male ICR mouse [4] it was 93.8%. In addition, the change in vivo at 10 mg/kg in the assay with male ICR mouse [3] stood at 35.3%.

With `NC(=O)OC(CC(=O)N1CCN(Cc2ccc(Cl)c(Cl)c2)CC1)c1ccccc1` (stereo not shown) [Example 37, carbamic acid 3-[4-(3,4-dichloro-benzyl)-piperazin-1-yl]-3-oxo-1-phenyl-propyl ester], the inhibition in vivo at 10 mg/kg with male ICR mouse [1] stood at 38.1%. Besides, the change in vivo at 30 mg/kg was found to be 10% in the assay on male ICR mouse [2] and 167% in the assay with male ICR mouse [4]. Besides, the change in vivo at 10 mg/kg in the assay with male ICR mouse [3] is 98.8%.

In the case of `NC(=O)OC(CC(=O)N1CCN(CCc2ccc(Cl)c(Cl)c2)CC1)c1ccccc1` (stereo not shown) [Example 39, carbamic acid 3-{4-[2-(3,4-dichloro-phenyl)-ethyl]-piperazin-1-yl}-3-oxo-1-phenyl-propyl ester], the inhibition in vivo at 10 mg/kg in the assay on male ICR mouse [1] came to 23.2%. Also, the results for the change in vivo at 30 mg/kg with male ICR mouse [2] and with male ICR mouse [4] were 18.7% and 319%, respectively. For the same molecule, the change in vivo at 10 mg/kg with male ICR mouse [3] was 57.8%.

On to `NC(=O)OC(CCC(=O)N1CCN(c2ccc(Cl)c(Cl)c2)CC1)c1ccccc1` (stereo not shown) [Example 40, carbamic acid 4-[4-(3,4-dichloro-phenyl)-piperazin-1-yl]-4-oxo-1-phenyl-butyl ester], for which, in the assay on male ICR mouse [1], the inhibition in vivo at 10 mg/kg stood at 11.1%. Further, the change in vivo at 30 mg/kg with male ICR mouse [2] is 27.8%; with male ICR mouse [4], 311%. Moreover, in the assay on male ICR mouse [3], the change in vivo at 10 mg/kg amounted to 68.8%.

In the case of `NC(=O)OC(CC(=O)N1CCN(c2ccccc2)CC1)c1ccccc1Cl` (stereo not shown) [Example 43, carbamic acid 1-(2-chloro-phenyl)-3-oxo-3-(4-phenyl-piperazin-1-yl)-propyl ester], in the assay on male ICR mouse [1], the inhibition in vivo at 10 mg/kg was 46%. Moreover, the change in vivo at 30 mg/kg with male ICR mouse [2] was determined as 26.7%; with male ICR mouse [4] it was 211%. In addition, in the assay on male ICR mouse [3], the change in vivo at 10 mg/kg came out at 19.7%.

With `NC(=O)OC(CC(=O)N1CCN(c2ccccc2)CC1)c1cccc(C(F)(F)F)c1` (stereo not shown) [Example 45, carbamic acid 1-(3-trifluormethyl-phenyl)-3-oxo-3-(4-phenyl-piperazin-1-yl)-propyl ester], in the assay on male ICR mouse [1], the inhibition in vivo at 10 mg/kg turned out to be 19%. For the same molecule, the results for the change in vivo at 30 mg/kg in the assay with male ICR mouse [2] and in the assay on male ICR mouse [4] were 6.9% and 167%, respectively. In addition, the change in vivo at 10 mg/kg in the assay with male ICR mouse [3] amounted to 74.5%.
